Activity calls are given as the source filed them. The rule behind the calls is not given here.
Columns and labels:
Peritoneal macrophage [1] = assay: Antiinflammatory activity in ICR mouse primary peritoneal macrophages assessed as inhibition of LPS-induced IL-6 production at 20 uM preincubated for 60 mins followed by LPS stimulation and measured after 24 hrs by ELISA relative to control; assay type: functional
Peritoneal macrophage [2] = assay: Antiinflammatory activity in ICR mouse primary peritoneal macrophages assessed as inhibition of LPS-induced TNFalpha production at 20 uM preincubated for 60 mins followed by LPS stimulation and measured after 24 hrs by ELISA relative to control; assay type: functional
Peritoneal macrophage [3] = assay: Antiinflammatory activity in ICR mouse primary peritoneal macrophages assessed as inhibition of LPS-induced IL-6 production preincubated for 2 hrs followed by LPS stimulation and measured after 22 hrs by ELISA; assay type: functional, cell-based
Peritoneal macrophage [4] = assay: Antiinflammatory activity in ICR mouse primary peritoneal macrophages assessed as inhibition of LPS-induced TNFalpha production preincubated for 2 hrs followed by LPS stimulation and measured after 22 hrs by ELISA; assay type: functional, cell-based
[5] = Cytotoxicity against rat H9c2 cells assessed as cell viability at 20 uM after 24 hrs by MTT assay relative to control; assay type: cell-based; details: read-out: Activity
[6] = Cytotoxicity against rat NRK cells assessed as cell viability at 20 uM after 24 hrs by MTT assay relative to control; assay type: cell-based; details: read-out: Activity
[7] = Cytotoxicity against ICR mouse primary peritoneal macrophages assessed as cell viability at 20 uM after 24 hrs by MTT assay relative to control; assay type: cell-based, Peritoneal macrophage; details: read-out: Activity
Mus musculus [8] = assay: Antiinflammatory activity in LPS-induced C57/BL6 mouse model of acute lung injury assessed as reduction in TNFalpha level in BALF at 10 mg/kg, ip pretreated for 30 mins followed by LPS challenge measured after 6 hrs by ELISA; assay type: functional, organism-based
Mus musculus [9] = assay: Antiinflammatory activity in LPS-induced C57/BL6 mouse model of acute lung injury assessed as reduction in IL6 level in BALF at 10 mg/kg, ip pretreated for 30 mins followed by LPS challenge measured after 6 hrs by ELISA; assay type: functional, organism-based
Mus musculus [10] = assay: Antiinflammatory activity in LPS-induced C57/BL6 mouse model of acute lung injury assessed as reduction in IL6 level in serum at 10 mg/kg, ip pretreated for 30 mins followed by LPS challenge measured after 6 hrs by ELISA; assay type: functional, organism-based
Mus musculus [11] = assay: Antiinflammatory activity in LPS-induced C57/BL6 mouse model of acute lung injury assessed as reduction in TNFalpha level in serum at 10 mg/kg, ip pretreated for 30 mins followed by LPS challenge measured after 6 hrs by ELISA; assay type: functional, organism-based
[12] = molecular target: Myeloid differentiation primary response protein MyD88 (Mus musculus) (UniProt P22366); assay: Inhibition of MyD88 in ICR mouse primary peritoneal macrophages assessed as reduction in LPS-induced ERK phosphorylation at 20 uM preincubated for 30 mins followed by LPS-stimulation and measured after 20 mins by Western blot analysis
Mus musculus [13] = assay: Antiinflammatory activity in LPS-induced C57/BL6 mouse model of acute lung injury assessed as reduction in lung wet/dry ratio at 10 mg/kg, ip pretreated for 30 mins followed by LPS challenge measured after 6 hrs; assay type: functional, organism-based
[14] = molecular target: Myeloid differentiation primary response protein MyD88 (Mus musculus) (UniProt P22366); assay: Inhibition of MyD88 in ICR mouse primary peritoneal macrophages assessed as reduction in LPS-induced JNK phosphorylation at 20 uM preincubated for 30 mins followed by LPS-stimulation and measured after 20 mins by Western blot analysis
[15] = molecular target: T1, Myeloid differentiation primary response protein MyD88 (Homo sapiens, UniProt Q99836); assay: Inhibition of LPS-induced HA-tagged MyD88 (unknown origin) interaction with FLAG-tagged MyD88 (unknown origin) expressed in HEK293 cells at 20 uM after 48 hrs by co-immunoprecipitation method; assay type: cell-based
[16] = molecular target: T1, Myeloid differentiation primary response protein MyD88; assay: Binding affinity to recombinant human MyD88 TIR domain (157 to 296 residues) expressed in Escherichia coli BL21(DE3) by surface plasmon resonance analysis
[17] = molecular target: Myeloid differentiation primary response protein MyD88 (Mus musculus) (UniProt P22366); assay: Inhibition of MyD88 in ICR mouse primary peritoneal macrophages assessed as reduction in LPS-induced p38 MAPK phosphorylation at 20 uM preincubated for 30 mins followed by LPS-stimulation and measured after 20 mins by Western blot analysis

T1 sequence (Q99836 whole entry, the tested form may be a part): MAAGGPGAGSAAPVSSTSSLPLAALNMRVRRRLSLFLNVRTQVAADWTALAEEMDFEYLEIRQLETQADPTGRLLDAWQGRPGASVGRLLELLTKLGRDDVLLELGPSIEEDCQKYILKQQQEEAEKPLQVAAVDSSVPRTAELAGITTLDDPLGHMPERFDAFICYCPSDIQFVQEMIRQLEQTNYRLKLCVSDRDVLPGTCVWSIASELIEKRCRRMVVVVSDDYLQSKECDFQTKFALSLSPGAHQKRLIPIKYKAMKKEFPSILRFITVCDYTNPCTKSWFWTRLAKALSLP
Myeloid differentiation primary response protein MyD88 (Mus musculus), sequence (P22366 whole entry): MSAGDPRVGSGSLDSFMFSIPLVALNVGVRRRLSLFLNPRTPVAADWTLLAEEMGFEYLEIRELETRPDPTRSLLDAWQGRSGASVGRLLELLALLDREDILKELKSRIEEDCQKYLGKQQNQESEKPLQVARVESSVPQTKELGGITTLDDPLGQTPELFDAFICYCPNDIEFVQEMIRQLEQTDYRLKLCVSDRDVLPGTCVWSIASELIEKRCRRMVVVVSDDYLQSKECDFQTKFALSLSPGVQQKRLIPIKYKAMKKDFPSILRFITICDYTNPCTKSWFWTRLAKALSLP

| SMILES | inhibition at 20 µM (Peritoneal macrophage [1]) [%] | inhibition at 20 µM (Peritoneal macrophage [2]) [%] | also measured |
| --- | --- | --- | --- |
| O=C(CCN1CCN(S(=O)(=O)c2ccccc2)CC1)Nc1nc(-c2ccccc2)cs1 | 29.9 | 17.6 |  |
| O=C(CCN1CCN(Cc2cccc([N+](=O)[O-])c2)CC1)Nc1nc(-c2ccccc2Br)cs1 | 86.9 | 83.2 | IC50 (Peritoneal macrophage [3]): 4.65 µM; inhibition (Peritoneal macrophage [3]): Dose-dependent effect; IC50 (Peritoneal macrophage [4]): 5.15 µM; inhibition (Peritoneal macrophage [4]): Dose-dependent effect; viability at 24 h, 20 µM [5]: > 80%; viability at 24 h, 20 µM [6]: > 80%; viability at 24 h, 20 µM [7]: > 80% |
| O=C(CCN1CCN(Cc2ccc(F)cc2)CC1)Nc1nc(-c2ccccc2)cs1 | 70.9 | 47.9 |  |
| N#Cc1ccc(CN2CCN(CCC(=O)Nc3nc(-c4ccccc4)cs3)CC2)cc1 | 67.3 | 33.7 |  |
| O=C(CCN1CCN(Cc2ccc3ccccc3c2)CC1)Nc1nc(-c2ccccc2)cs1 | 18.3 | 2.41 |  |
| COc1ccc(CN2CCN(CCC(=O)Nc3nc(-c4ccccc4)cs3)CC2)cc1 | 75.3 | 40.2 |  |
| COc1ccc(S(=O)(=O)N2CCN(CCC(=O)Nc3nc(-c4ccccc4)cs3)CC2)cc1 | 35.6 | 33.1 |  |
| O=C(CCN1CCN(Cc2ccc(Cl)cc2)CC1)Nc1nc(-c2ccccc2)cs1 | 63.4 | 52.8 |  |
| O=C(CCN1CCN(Cc2cccc([N+](=O)[O-])c2)CC1)Nc1nc(-c2cccc(Br)c2)cs1 | 73 | 52.5 |  |
| Cc1ccc(CN2CCN(CCC(=O)Nc3nc(-c4ccccc4)cs3)CC2)cc1 | 67.6 | 27.1 |  |
| COc1ccc(-c2csc(NC(=O)CCN3CCN(Cc4cccc([N+](=O)[O-])c4)CC3)n2)cc1OC | 90.2 | 87.6 | IC50 (Peritoneal macrophage [3]): 3.15 µM; inhibition (Peritoneal macrophage [3]): Dose-dependent effect; IC50 (Peritoneal macrophage [4]): 1.77 µM; inhibition (Peritoneal macrophage [4]): Dose-dependent effect; viability at 24 h, 20 µM [5]: > 80%; viability at 24 h, 20 µM [6]: > 80%; viability at 24 h, 20 µM [7]: > 80% |
| O=C(CCN1CCN(Cc2cccc([N+](=O)[O-])c2)CC1)Nc1nc2ccccc2s1 | 64.2 | 63.6 |  |
| COC(=O)c1csc(NC(=O)CCN2CCN(Cc3cccc([N+](=O)[O-])c3)CC2)n1 | 56.3 | 31.7 |  |
| O=C(CCN1CCN(Cc2cccc([N+](=O)[O-])c2)CC1)Nc1nc(-c2ccc(C3CCCCC3)cc2)cs1 | 28.5 | 19.8 |  |
| O=C(CCN1CCN(Cc2cccc(Cl)c2)CC1)Nc1nc(-c2ccccc2)cs1 | 74.5 | 48.8 |  |
| Nc1cccc(CN2CCN(CCC(=O)Nc3nc(-c4ccccc4)cs3)CC2)c1 | 11.5 | 13.6 |  |
| O=C(CCN1CCN(Cc2cccc([N+](=O)[O-])c2)CC1)Nc1nc(-c2ccc([N+](=O)[O-])cc2)cs1 | 58.8 | 32.4 |  |
| Nc1ccc(CN2CCN(CCC(=O)Nc3nc(-c4ccccc4)cs3)CC2)cc1 | 45.8 | 10.1 |  |
| N#Cc1cccc(CN2CCN(CCC(=O)Nc3nc(-c4ccccc4)cs3)CC2)c1 | 78.3 | 52.3 |  |
| O=C(CCN1CCN(Cc2cccc([N+](=O)[O-])c2)CC1)Nc1nc(-c2ccco2)cs1 | 78.7 | 65.2 |  |
| O=C(CCN1CCN(Cc2ccc(C(F)(F)F)cc2)CC1)Nc1nc(-c2ccccc2)cs1 | 69 | 55.3 |  |
| O=C(CCN1CCN(Cc2cccc(F)c2)CC1)Nc1nc(-c2ccccc2)cs1 | 68.5 | 40.5 |  |
| CN1CCN(CCC(=O)Nc2nc(-c3ccccc3)cs2)CC1 |  |  | inhibition (Peritoneal macrophage [1]): inactive; inhibition (Peritoneal macrophage [2]): inactive |
| O=C(CCN1CCN(Cc2cccc([N+](=O)[O-])c2)CC1)Nc1nc(-c2ccccc2)cs1 | 81.5 | 64.2 |  |

| SMILES | inhibition at 20 µM (Peritoneal macrophage [1]) [%] | inhibition at 20 µM (Peritoneal macrophage [2]) [%] | also measured |
| --- | --- | --- | --- |
| O=C(CCN1CCN(Cc2ccccc2)CC1)Nc1nc(-c2ccccc2)cs1 | 69.3 | 47 | Activity (Mus musculus [8]): Active; IC50 (Peritoneal macrophage [3]): 10.2 µM; Activity (Mus musculus [9]): Active; Activity (Mus musculus [10]): Active; Activity (Mus musculus [11]): Active; inhibition [12]: Active; IC50 (Peritoneal macrophage [4]): 11.9 µM; Activity (Mus musculus [13]): Active; inhibition [14]: Active; inhibition [15]: Active; Ka [16]: 3340 M⁻¹ s⁻¹; Kd [16]: 180 µM; Kdiss [16]: 0.6 s⁻¹; inhibition [17]: Active |
| COc1cc(CN2CCN(CCC(=O)Nc3nc(-c4ccccc4)cs3)CC2)cc(OC)c1 | 57 | 34.2 |  |
| Cc1ccc(-c2csc(NC(=O)CCN3CCN(Cc4cccc([N+](=O)[O-])c4)CC3)n2)cc1 | 75.1 | 79 |  |
| COc1ccc(S(=O)(=O)N2CCN(CCC(=O)Nc3nc(-c4ccccc4)cs3)CC2)cc1OC | 49.5 | 37.2 |  |
| O=C(CCN1CCN(S(=O)(=O)c2ccc(Cl)cc2)CC1)Nc1nc(-c2ccccc2)cs1 | 70.3 | 37.6 |  |
| O=C(CCN1CCN(S(=O)(=O)c2ccc(C(F)(F)F)cc2)CC1)Nc1nc(-c2ccccc2)cs1 |  | 2.54 | inhibition (Peritoneal macrophage [1]): inactive |
| CCOc1ccc(-c2csc(NC(=O)CCN3CCN(Cc4cccc([N+](=O)[O-])c4)CC3)n2)cc1 | 85.3 | 74.3 |  |
| O=C(CCN1CCN(S(=O)(=O)c2ccc([N+](=O)[O-])cc2)CC1)Nc1nc(-c2ccccc2)cs1 | 40.6 | 38.6 |  |
| COc1cccc(CN2CCN(CCC(=O)Nc3nc(-c4ccccc4)cs3)CC2)c1 | 53.8 | 36.1 |  |
| O=C(CCN1CCN(Cc2cccc([N+](=O)[O-])c2)CC1)Nc1nc(-c2ccc(F)c(F)c2)cs1 | 86.7 | 61.8 |  |
| O=C(CCN1CCN(Cc2ccc([N+](=O)[O-])cc2)CC1)Nc1nc(-c2ccccc2)cs1 | 76.8 | 56.7 |  |
| O=C(CCN1CCN(Cc2cccc([N+](=O)[O-])c2)CC1)Nc1nc(C2CCC2)cs1 | 66.3 | 61.4 |  |
| O=C(CCN1CCN(S(=O)(=O)c2cc(Cl)cc(Cl)c2)CC1)Nc1nc(-c2ccccc2)cs1 | 55.6 | 49.1 |  |
| O=C(CCN1CCN(Cc2cccc([N+](=O)[O-])c2)CC1)Nc1nc(-c2ccc(Cl)cc2)cs1 | 77.6 | 58.3 |  |
| CC(C)(C)c1ccc(CN2CCN(CCC(=O)Nc3nc(-c4ccccc4)cs3)CC2)cc1 | 51.8 | 12 |  |
| O=C(CCN1CCN(Cc2c(Cl)cccc2Cl)CC1)Nc1nc(-c2ccccc2)cs1 | 73.8 | 37.1 |  |
| O=C(CCN1CCN(Cc2cccc([N+](=O)[O-])c2)CC1)Nc1nc(-c2ccc(Br)cc2)cs1 | 81 | 71.9 |  |
| COc1ccc(-c2csc(NC(=O)CCN3CCN(Cc4cccc([N+](=O)[O-])c4)CC3)n2)cc1 | 82 | 73.8 |  |
| O=C(CCN1CCN(S(=O)(=O)c2cccc(Cl)c2)CC1)Nc1nc(-c2ccccc2)cs1 | 61.1 | 32.8 |  |
| O=C(CCN1CCN(Cc2cccc([N+](=O)[O-])c2)CC1)Nc1nc(-c2cccc([N+](=O)[O-])c2)cs1 | 76.3 | 51.2 |  |
| O=C(CCN1CCN(CCc2ccccc2)CC1)Nc1nc(-c2ccccc2)cs1 | 27.4 | 9.1 |  |
| N#Cc1ccc(-c2csc(NC(=O)CCN3CCN(Cc4cccc([N+](=O)[O-])c4)CC3)n2)cc1 | 50.6 | 49.7 |  |
| O=C(CCN1CCN(Cc2cccc([N+](=O)[O-])c2)CC1)Nc1nc(-c2ccc(F)cc2)cs1 | 86.4 | 65.6 |  |
